Measured values taken from patent US8142759B2, “Glyco-molecular imaging method for grade classification of liver fibrosis and its glyco-molecular imaging agent thereof” (Institute of Nuclear Energy Research, priority 2007, dated 2012).

Assay: Storage stability at room temperature
Format: physicochemical

Structure (SMILES) | storage time at room temperature (air/water stability) | storage stability at room temperature (water dissolution)
O=C(CN(CCSC(c1ccccc1)(c1ccccc1)c1ccccc1)CC(=O)ON1C(=O)CCC1=O)NCCSC(c1ccccc1)(c1ccccc1)c1ccccc1 [SOCTA, succinimidyl-3,6-diaza-5-oxo-3-[2-((triphenyl-methyl)thio)ethyl]-8-[(triphenylmethyl)-thio]octanoate] | one | –
O=C(O)CN(CCN1CC(=O)OC(=O)C1)CCN1CC(=O)OC(=O)C1 [DTPA anhydride] | – | much unstable
